Test [1] has as its target IDH1-R132H recombinant protein (Homo sapiens (Human), UniProt O75874, R132H). Briefly: IDH1-R132H enzymatic assay (NADPH consumption, diaphorase/resazurin readout). The note with it: inhibition of NADPH consumption, 30 nM IDH1-R132H; read-out: Enzyme IDH1 R132H IC50. The test is classed as biochemical. The procedure: (§1) Assays were performed in a 384-well black plate. An aliquot of 250 nL of compound was incubated with 10 μL of 30 nM IDH1-R132H or 10 nM IDH1-R132C recombinant protein in assay buffer (50 mM Tris pH=7.5, 150 mM NaCl, 5 mM MgCl2, 0.1% (w/v) Bovine Serum Albumin, and 0.01% Triton X-100) in each well at 25° C. for 15 minutes. After the plate was centrifuged briefly, an aliquot of 10 μL of 2 mM α-ketoglutarate and 20 μM NADPH solution prepared in assay buffer was then added to each well and the reaction was maintained at 25° C. for 45 minutes. An aliquot of 10 μL of diaphorase solution (0.15 U/mL diaphorase and 30 μM Resazurin in assay buffer) was added to each well. The plate was maintained at 25° C. for 15 minutes and then read on a plate reader with excitation and emission wavelengths at 535 nm and 590 nm, respectively. The IC50 of a given compound was calculated by fitting the dose response curve of inhibition of NADPH consumption at a given concentration with the four parameter logistic equation.

Test [2] concerns the target IDH1-R132C recombinant protein (Homo sapiens (Human), UniProt O75874, R132C). Briefly: IDH1-R132C enzymatic assay (NADPH consumption, diaphorase/resazurin readout). In kind it is biochemical. Particulars: inhibition of NADPH consumption, 10 nM IDH1-R132C; read-out: Enzyme IDH1 R132C IC50. The procedure:
as §1
(In general: Resazurin is reduced to fluorescent resorufin, in cell work by metabolically active cells.)

Where only a bound is given, the exact number is not on record here.

In general, IC50 refers to the concentration that inhibits the measured activity by half.

IDH1-R132C recombinant protein, sequence (O75874 whole entry R132C): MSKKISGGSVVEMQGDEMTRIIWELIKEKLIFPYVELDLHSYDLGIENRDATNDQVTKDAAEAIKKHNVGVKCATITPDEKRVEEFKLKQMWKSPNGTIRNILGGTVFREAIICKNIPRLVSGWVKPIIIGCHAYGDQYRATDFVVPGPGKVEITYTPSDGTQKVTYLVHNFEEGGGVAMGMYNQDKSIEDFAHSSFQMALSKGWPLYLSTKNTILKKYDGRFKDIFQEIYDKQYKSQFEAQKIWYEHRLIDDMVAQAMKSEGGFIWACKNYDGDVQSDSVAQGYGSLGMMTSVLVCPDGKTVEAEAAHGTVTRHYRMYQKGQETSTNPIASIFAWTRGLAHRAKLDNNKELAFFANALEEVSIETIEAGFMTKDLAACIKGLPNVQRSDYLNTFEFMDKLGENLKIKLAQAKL
IDH1-R132H recombinant protein, sequence (O75874 whole entry R132H): as the sequence (O75874 whole entry R132C) above, with C132H counted along it

As for `COc1cc2[nH]c(=O)c(C(C)Nc3ncc4c(n3)N(C)C(=O)OC4)cc2cc1Cl` (racemic) [Compound I-50, 6-chloro-7-methoxy-3-[1-({1-methyl-2-oxo-1H,2H,4H-pyrimido[4,5-d][1,3]oxazin-7-yl}amino)ethyl]-1,2-dihydroquinolin-2-one], the IC50 in test [1] and in test [2] was below 100 nM in each case. On to `O=c1[nH]c2ccc(Cl)cc2cc1CNc1cccc2ocnc12` [Compound I-1, 3-{[(1,3-benzoxazol-4-yl)amino]methyl}-6-chloro-1,2-dihydroquinolin-2-one], for which the concentration for half-maximal inhibition (IC50) in test [1] and in test [2] was 100 to 1000 nM throughout. For `O=c1ccc2cc(NCc3cc4cc(Cl)ccc4[nH]c3=O)ccc2o1` [Compound I-4, 6-chloro-3-{[(2-oxo-2H-chromen-6-yl)amino]methyl}-1,2-dihydroquinolin-2-one], the 50% inhibitory concentration (IC50) was 100 to 1000 nM in test [1] and above 10000 nM in test [2]. For `Cc1cc2cc(CNc3ccc4ncsc4c3)c(=O)[nH]c2cc1C` [Compound I-40, 3-{[(1,3-benzothiazol-6-yl)amino]methyl}-6,7-dimethyl-1,2-dihydroquinolin-2-one], the 50% inhibitory concentration (IC50) in test [1] was above 10000 nM. As for `CC(C)(C)c1ccc2[nH]c(=O)c(CNc3ccc4[nH]ncc4c3)cc2c1` [Compound I-41, 6-tert-butyl-3-{[(1H-indazol-5-yl)amino]methyl}-1,2-dihydroquinolin-2-one], in test [1], the IC50 fell in the range of 1000 to 10000 nM.

Consider `CC(=O)N1CCc2c1ccnc2N[C@@H](C)c1cc2cc(Cl)ccc2[nH]c1=O` [Compound I-42, 3-[(1S)-1-({1-acetyl-1H,2H,3H-pyrrolo[3,2-c]pyridin-4-yl}amino)ethyl]-6-chloro-1,2-dihydroquinolin-2-one], for which the IC50 in test [1] lay within 100 to 1000 nM; in test [2] it was 1000 to 10000 nM. `C[C@H](Nc1nccc2c1CCN2S(C)(=O)=O)c1cc2cc(Cl)ccc2[nH]c1=O` [Compound I-43, 6-chloro-3-[(1S)-1-({1-methanesulfonyl-1H,2H,3H-pyrrolo[3,2-c]pyridin-4-yl}amino)ethyl]-1,2-dihydroquinolin-2-one]: the IC50 in test [1] was in the range of 1000 to 10000 nM. `CC(=O)N1CCOc2c1ccnc2N[C@@H](C)c1cc2cc(Cl)ccc2[nH]c1=O` [Compound I-44, 3-[(1S)-1-({1-acetyl-1H,2H,3H-pyrido[3,4-b][1,4]oxazin-5-yl}amino)ethyl]-6-chloro-1,2-dihydroquinolin-2-one]: the values for the 50% inhibitory concentration (IC50) in test [1] and in test [2] were 1000 to 10000 nM and above 10000 nM, respectively. For `C[C@H](Nc1ncc2cn[nH]c2n1)c1cc2cc(Cl)ccc2[nH]c1=O` [Compound I-45, 6-chloro-3-[(1S)-1-({1H-pyrazolo[3,4-d]pyrimidin-6-yl}amino)ethyl]-1,2-dihydroquinolin-2-one] the same measures were 100 to 1000 nM and 1000 to 10000 nM. Take `CC(C)CN1C(=O)OCc2cnc(N[C@@H](C)c3cc4cc(Cl)ccc4[nH]c3=O)nc21` [Compound I-46, 6-chloro-3-[(1S)-1-{[1-(2-methylpropyl)-2-oxo-1H,2H,4H-pyrimido[4,5-d][1,3]oxazin-7-yl]amino}ethyl]-1,2-dihydroquinolin-2-one]: the IC50 in test [1] and in test [2] was below 100 nM in each case. On to `C[C@H](Nc1ncc2c(n1)N(C)C(=O)OC2)c1cc2cc(Cl)ccc2[nH]c1=O` [Compound I-47, 6-chloro-3-[(1S)-1-({1-methyl-2-oxo-1H,2H,4H-pyrimido[4,5-d][1,3]oxazin-7-yl}amino)ethyl]-1,2-dihydroquinolin-2-one], for which the IC50 in test [1] and in test [2] was below 100 nM throughout. Regarding `C[C@H](Nc1ncc2c(n1)N(C)C(=O)OC2)c1cc2cc(Cl)c(OCc3ccccn3)cc2[nH]c1=O` [Compound I-48, 6-chloro-3-[(1S)-1-({1-methyl-2-oxo-1H,2H,4H-pyrimido[4,5-d][1,3]oxazin-7-yl}amino)ethyl]-7-(pyridin-2-ylmethoxy)-1,2-dihydroquinolin-2-one], the half-inhibitory concentration (IC50) in test [1] and in test [2] was below 100 nM in each case. On to `C[C@H](Nc1ncc2c(n1)NC(=O)OC2)c1cc2cc(Cl)ccc2[nH]c1=O` [Compound I-49, 6-chloro-3-[(1S)-1-({2-oxo-1H,2H,4H-pyrimido[4,5-d][1,3]oxazin-7-yl}amino)ethyl]-1,2-dihydroquinolin-2-one], for which the figures for the IC50 in test [1] and in test [2] were below 100 nM and 100 to 1000 nM, respectively. `COc1cc2[nH]c(=O)c([C@H](C)Nc3ncc4c(n3)N(C)C(=O)OC4)cc2cc1Cl` [Compound I-51, 6-chloro-7-methoxy-3-[(1S)-1-({1-methyl-2-oxo-1H,2H,4H-pyrimido[4,5-d][1,3]oxazin-7-yl}amino)ethyl]-1,2-dihydroquinolin-2-one]: the IC50 in test [1] and in test [2] was below 100 nM in each case. In the case of `COc1cc2[nH]c(=O)c([C@@H](C)Nc3ncc4c(n3)N(C)C(=O)OC4)cc2cc1Cl` [Compound I-52, 6-chloro-7-methoxy-3-[(1R)-1-({1-methyl-2-oxo-1H,2H,4H-pyrimido[4,5-d][1,3]oxazin-7-yl}amino)ethyl]-1,2-dihydroquinolin-2-one], the concentration for half-maximal inhibition (IC50) in test [1] lay in the range of 100 to 1000 nM; in test [2] it was 1000 to 10000 nM. `C[C@@H](Nc1ncc2c(n1)N(C)C(=O)OC2)c1cc2cc(Cl)c(F)cc2[nH]c1=O` [Compound I-53, 6-chloro-7-fluoro-3-[(1R)-1-({1-methyl-2-oxo-1H,2H,4H-pyrimido[4,5-d][1,3]oxazin-7-yl}amino)ethyl]-1,2-dihydroquinolin-2-one]: the IC50 in test [1] was 1000 to 10000 nM; in test [2] it was above 10000 nM. In the case of `CC(C)Cn1c(=O)oc2cnc(N[C@@H](C)c3cc4cc(Cl)ccc4[nH]c3=O)nc21` [Compound I-55, 6-chloro-3-[(1S)-1-{[3-(2-methylpropyl)-2-oxo-2H,3H-[1,3]oxazolo[4,5-d]pyrimidin-5-yl]amino}ethyl]-1,2-dihydroquinolin-2-one], the IC50 in test [1] and in test [2] was below 100 nM throughout. With `C[C@H](Nc1ncc2oc(=O)[nH]c2n1)c1cc2cc(Cl)ccc2[nH]c1=O` [Compound I-56, 6-chloro-3-[(1S)-1-({2-oxo-2H,3H-[1,3]oxazolo[4,5-d]pyrimidin-5-yl}amino)ethyl]-1,2-dihydroquinolin-2-one], the IC50 is below 100 nM in test [1] and 100 to 1000 nM in test [2].

As to `C[C@H](Nc1ncc2oc(=O)n(C)c2n1)c1cc2cc(Cl)ccc2[nH]c1=O` [Compound I-57, 6-chloro-3-[(1S)-1-({3-methyl-2-oxo-2H,3H-[1,3]oxazolo[4,5-d]pyrimidin-5-yl}amino)ethyl]-1,2-dihydroquinolin-2-one], the figures for the IC50 in test [1] and in test [2] were below 100 nM and 100 to 1000 nM, respectively. `C[C@H](Nc1ncc2[nH]c(=O)n(C)c2n1)c1cc2cc(Cl)ccc2[nH]c1=O` [Compound I-58, 6-chloro-3-[(1S)-1-[(9-methyl-8-oxo-8,9-dihydro-7H-purin-2-yl)amino]ethyl]-1,2-dihydroquinolin-2-one]: the results for the concentration for half-maximal inhibition (IC50) in test [1] and in test [2] were 100 to 1000 nM and 1000 to 10000 nM, respectively. Take `C[C@H](Nc1ncc2[nH]c(=O)[nH]c2n1)c1cc2cc(Cl)ccc2[nH]c1=O` [Compound I-59, 6-chloro-3-[(1S)-1-[(8-oxo-8,9-dihydro-7H-purin-2-yl)amino]ethyl]-1,2-dihydroquinolin-2-one]: the half-inhibitory concentration (IC50) in test [1] and in test [2] was 1000 to 10000 nM throughout. In the case of `C[C@H](Nc1ncc2c(n1)NC(=O)C2)c1cc2cc(Cl)ccc2[nH]c1=O` [Compound I-60, 6-chloro-3-[(1S)-1-({6-oxo-5H,6H,7H-pyrrolo[2,3-d]pyrimidin-2-yl}amino)ethyl]-1,2-dihydroquinolin-2-one], the IC50 in test [1] lay in the range of 100 to 1000 nM; in test [2] it was 1000 to 10000 nM. Turning to `C[C@H](Nc1ncc2c(n1)N(C)C(=O)C2)c1cc2cc(Cl)ccc2[nH]c1=O` [Compound I-61, 6-chloro-3-[(1S)-1-({7-methyl-6-oxo-5H,6H,7H-pyrrolo[2,3-d]pyrimidin-2-yl}amino)ethyl]-1,2-dihydroquinolin-2-one], the half-maximal inhibitory concentration (IC50) in test [1] and in test [2] was 100 to 1000 nM each time. For `C[C@H](Nc1ncc2c(n1)NC(=O)CC2)c1cc2cc(Cl)ccc2[nH]c1=O` [Compound I-62, 6-chloro-3-[(1S)-1-({7-oxo-5H,6H,7H,8H-pyrido[2,3-d]pyrimidin-2-yl}amino)ethyl]-1,2-dihydroquinolin-2-one], the IC50 in test [1] and in test [2] was 1000 to 10000 nM in each case.

These data come from patent publication US9624175B2, “Fused-bicyclic aryl quinolinone derivatives as mutant-isocitrate dehydrogenase inhibitors” (Forma Therapeutics, Inc., priority 2015, dated 2017).
